Assay results: patent publication US12115182B2, “Adenosine A2A agonists for the treatment of cytokine storm syndrome” (priority 2021, dated 2024)
“Also recorded” adds a separate entry of the source.

Legend:
[1] = tested on: MHS cells; assay: RAGE shedding in alveolar macrophages (MHS): Western blot of sRAGE, immunofluorescence of RAGE; type: cell-based, mouse; details: PMA-treated MHS cells; GM6001 2 nM, regadenoson 100 nM, ATL146e 10 nM
[2] = Plasma levels of regadenoson in COVID-19 patients (LC-MS); type: in vivo, human; details: loading dose then 1.44 μg/kg/hr for 6 hours
Protocol: In cohort 1 of this trial, we tested the safety, tolerability, and toxicity of regadenoson in 5 COVID-19 patients (WHO stages 4-5) receiving supplemental oxygen without mechanical ventilation. All subjects received an infused loading dose of 5.0 μg/kg up to a maximum of 400 μg over 30 minutes, followed by a maintenance dose of 1.44 μg/kg/hr for 6 hours. Toxicity of regadenoson was graded by using Common Terminology for Adverse Events Criteria. Vital signs, pulse oximetry, arterial blood gas, laboratory studies, and electrocardiograms were performed on a schedule commensurate with level of care to identify potential risk of the study drug during and 12 hours post infusion. The trial was monitored by an NIH designated DSMB. Peripheral blood samples were collected at 4 timepoints. Along with clinical monitoring, plasma levels of cytokines (14-plex Luminex panel) were measured at various time points. Cytokine data were analyzed by SAS 9.5 PROC MIXED. Activation of peripheral blood mononuclear cells including iNKT cells was analyzed by flow cytometry. Flow cytometry data were analyzed by FCS Express 7 Research edition and GraphPad Prism v9. The plasma levels of regadenoson were determined via liquid chromatography-mass spectrometry.

[3] = tested on: MMP-9; assay: Gelatin zymography of plasma MMP-9 in lung transplant recipients; type: in vivo, human; details: low and high dose vs control, 30 minutes after 1st and 2nd lung reperfusion
Protocol: We designed this trial mainly as a Phase I safety and feasibility study that would allow an optimal infusional dose to be determined based on dose-limiting toxicities identified in lung transplant recipients. We also evaluated the potential efficacy by clinical outcomes and the lab evaluation of various cytokines/chemokines, DAMPs and enzymes. Blood was drawn for cytokine/chemokine, DAMPs and MMP-2/-9 analysis at the following different timepoints: 1) before infusion, 2) 15 minutes before reperfusion of the 1st lung, 3) 30 minutes after reperfusion of 1st lung, 4) 30 minutes after reperfusion of 2nd lung, and 5) 6 hours after reperfusion of 1st lung. HMGB1 and sRAGE levels were measured using a customized human Cytokine/Chemokine multiplex immunoassay (Millipore Sigma, Burlington, MA) at The University of Virginia Flow Cytometry Core (RRID: SCR_01 7829) as previously described (LAU et al., J Heart Lung Transplant, (2020), 39:563-570).
Plasma samples were collected as described above. Protein concentrations were determined with BCA protein assay. Equal amounts of proteins (20 μg) were loaded in each lane for MMP-2 and-9 gelatinolytic activity detection by use of gelatin zymography as our previous publications (ZHAO et al., J Biol Chem, (2003), 278:15056-15064; ZHAO et al., Am J Physiol Lung Cell Mol Physiol, (2011), 300: L718-729).

With `CNC(=O)c1cnn(-c2nc(N)c3ncn([C@@H]4O[C@H](CO)[C@@H](O)[C@H]4O)c3n2)c1` [Regadenoson] the “PMA-induced shedding of cell membrane-anchored RAGE” value [1] was “suppressed the shedding of RAGE; also recorded: partially inhibited”, the “median peak plasma levels of regadenoson” value [2] was 14.24 ng/mL and the “peak plasma levels of regadenoson, range” value [2] was 3.64 to 78.64 ng/mL. For the same compound, the “gelatinolytic activity of MMP-9 in plasma” value [3] was “significantly decreased”.
